According to patent publication US20140057915A1, “KINASE INHIBITORS” (TOPIVERT PHARMA LIMITED, priority 2012, published 2014):
Like-named read-outs stand apart in the source and are kept apart here.

How the values were obtained:
d-U937 cells = assay: Cell viability: MTT assay; assay type: cell-based, human; settings: 1 μg/mL
How it was run: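 MTT reduction (1 h, DMSO solubilisation, A550) measured after compound treatment at 1 or 10 μg/mL of differentiated U937 cells for 4 h (5% FCS RPMI1640) or 24 h (10% FCS). Percentage viability loss computed relative to 0.5% DMSO vehicle, with increases tabulated as negative values.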

PBMC cells = assay: Cell mitosis assay; assay type: cell-based; settings: Homo sapiens, read-out: % Inhibition of mitosis in PBMC cells at 5 μg/mL
How it was run: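 Healthy-donor PBMCs (3 million cells per sample) stimulated with 2% PHA for 48 hr, then exposed 20 hr to varying compound concentrations. Demecolcine (0.1 μg/mL) added 2 hr before collection to arrest cells in metaphase; read by flow cytometry gated on lymphocytes.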

[1] = system: TNFα release, d-U937 cells; assay: LPS-induced TNFα release in d-U937 cells; assay type: cell-based; settings: Homo sapiens, dU937; for EC50: relative to 10 μg/mL BIRB796, Table 4c1, read-out: LPS Induced Release of Cytokine in d-U937 Cells, TNFα REC50; for IC50: Table 4c2, different laboratory, read-out: IC50 Values for Inhibition of Cytokine Release, dU937 cells, TNFα
How it was run: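 Sandwich ELISA quantifies cytokine in supernatants after 4 hr LPS challenge (0.1 μg/mL) of PMA-differentiated (100 ng/mL, 48–72 hr) U937 macrophages given compound 2 hr beforehand. REC50 derived from concentration-response curve, inhibition calculated relative to vehicle.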

HRV16 in MRC5 cells = assay: HRV16 induced CPE in MRC5 cells; assay type: cell-based; settings: Human rhinovirus sp., HRV-16
Description: (j) Assessment of HRV16 Induced CPE in MRC5 Cells
MRC-5 cells are infected with HRV16 at an MOI of 1n DMEM containing 5% FCS and 1.5 mM magnesium chloride, followed by incubation for 1 hr at 33° C. to promote adsorption. The supernatants are aspirated, and then fresh media added followed by incubation for 4 days. Where appropriate, cells are pre-incubated with compound or DMSO for 2 hr, and the compounds and DMSO added again after washout of the virus.
After washing, 1% SDS in distilled water (100 μL) is added to each well, and the plates are shaken lightly for 1-2 hr prior to reading the absorbance at 660 nm. The percentage inhibition for each well is calculated. The IC50 value is calculated from the concentration-response curve generated by the serial dilutions of the test compounds.

cSrc = cSrc (Homo sapiens, UniProt P12931); assay: c-Src enzyme inhibition (FRET); assay type: biochemical
Chain of cSrc (P12931 whole entry): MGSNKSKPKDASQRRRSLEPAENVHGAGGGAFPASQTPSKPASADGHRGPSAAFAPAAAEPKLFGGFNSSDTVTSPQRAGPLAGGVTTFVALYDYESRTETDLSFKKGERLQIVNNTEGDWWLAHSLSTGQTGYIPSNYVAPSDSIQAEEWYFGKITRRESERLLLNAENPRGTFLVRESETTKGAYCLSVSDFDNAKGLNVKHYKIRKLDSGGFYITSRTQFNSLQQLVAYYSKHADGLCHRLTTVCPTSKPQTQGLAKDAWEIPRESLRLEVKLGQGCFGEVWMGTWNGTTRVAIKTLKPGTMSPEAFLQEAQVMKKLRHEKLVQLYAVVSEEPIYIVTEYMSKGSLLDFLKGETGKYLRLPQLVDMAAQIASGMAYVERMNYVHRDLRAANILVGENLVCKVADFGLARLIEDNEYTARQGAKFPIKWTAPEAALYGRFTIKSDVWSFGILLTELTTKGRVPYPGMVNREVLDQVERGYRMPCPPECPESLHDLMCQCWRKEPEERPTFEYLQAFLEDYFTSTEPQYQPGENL
How it was run: (§1)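 Enzyme was preincubated with test compound (added as 4, 0.4, 0.04 or 0.004 μg/mL solutions) for 2 hr at RT. FRET peptide (8 μM solution) and ATP solution (800 μM for c-Src, 60 μM for Syk) were then added for 1 hr, followed by 1 hr protease development.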

IL-2 release, PBMCs = assay: IL-2 release in CD3/CD28 stimulated PBMC cells; assay type: cell-based; settings: Homo sapiens, read-out: IC50 Values for Inhibition of Cytokine Release, PBMCs, IL-2
[2] = system: IL-8 release, d-U937 cells; assay: LPS-induced IL-8 release in d-U937 cells; assay type: cell-based; settings: Homo sapiens, dU937
How it was run: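 IL-8 release after a 4 hr challenge with LPS (0.1 μg/mL, E. coli 0111:B4) following a 2 hr compound pretreatment. Cells were human U937 monocytes differentiated to macrophage-type with PMA 100 ng/mL for 48–72 hr. Relative 50% effective concentration derived from concentration–response data.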

Syk = Syk (Homo sapiens, UniProt P43405); assay: Syk enzyme inhibition (FRET); assay type: biochemical
How it was run: as §1

[3] = Table 4a2, different laboratory
[4] = Table 4c1, read-out: LPS Induced Release of Cytokine in d-U937 Cells, IL-8 IC50
[5] = Table 4c2, different laboratory, read-out: IC50 Values for Inhibition of Cytokine Release, dU937 cells, IL-8

| Structure (SMILES) | EC50 [1] | IC50 (cSrc; Table 4a1) | IC50 (cSrc; [3]) | IC50 [2, 4] | IC50 [1] | IC50 (Syk; Table 4a1) | IC50 [2, 5] | IC50 (Syk; [3]) | Cell viability at time point in d-U937 cells, 4 h (d-U937 cells) | Cell viability at time point in d-U937 cells, 24 h (d-U937 cells) | inhibition at 5 µg/mL (PBMC cells) | IC50 (HRV16 in MRC5 cells) | IC50 (IL-2 release, PBMCs) |
| --- | --- | --- | --- | --- | --- | --- | --- | --- | --- | --- | --- | --- | --- |
| COc1cc(Nc2nccc(Oc3ccc(NC(=O)Nc4cc(C(F)(F)C(F)(F)F)nn4-c4ccc(C)cc4)c4ccccc34)n2)cc(C(=O)NCCN2CCOCC2)c1 [Example 9] | 0.9 nM | 2 nM | 21 nM | 1.4 nM | – | – | – | – | −ve (−ve and +ve indicate that the value is below and above respectively, the no significant effect threshold, defined as 30% inhibition at 1 μg/mL at the time point indicated) | −ve (−ve and +ve indicate that the value is below and above respectively, the no significant effect threshold, defined as 30% inhibition at 1 μg/mL at the time point indicated) | 20.7% | 1.7 nM | 132 nM |
| COc1cc(Nc2cc(Oc3ccc(NC(=O)Nc4cc(C(C)(C)C)nn4-c4ccc(C)cc4)c4ccccc34)ccn2)cc(C(=O)NCCN2CCOCC2)c1 [Example 1, 3-((4-((4-(3-(3-(tert-Butyl)-1-(p-tolyl)-1H-pyrazol-5-yl)ureido)naphthalen-1-yl)oxy)pyridin-2-yl)amino)-5-methoxy-N-(2-morpholinoethyl)benzamide] | 0.7 nM | 5 nM | 27 nM | 1.8 nM | 2.1 nM | 10 nM | 2.8 nM | 66 nM | −ve (−ve and +ve indicate that the value is below and above respectively, the no significant effect threshold, defined as 30% inhibition at 1 μg/mL at the time point indicated) | −ve (−ve and +ve indicate that the value is below and above respectively, the no significant effect threshold, defined as 30% inhibition at 1 μg/mL at the time point indicated) | 39.3% | 2.9 nM | 84.3 nM |
| COc1ccc(-n2nc(C3(C)COC3)cc2NC(=O)Nc2ccc(Oc3ccnc(Nc4cccc(C(=O)NCCN5CCOCC5)c4)n3)c3ccccc23)cc1 [Example 23, 3-((4-((4-(3-(1-(4-methoxyphenyl)-3-(3-methyloxetan-3-yl)-1H-pyrazol-5-yl)ureido)naphthalen-1-yl)oxy)pyrimidin-2-yl)amino)-N-(2-morpholinoethyl)benzamide] | 5.2 nM | < 1 nM | – | 2.3 nM | – | 203 nM | – | – | −ve (−ve and +ve indicate that the value is below and above respectively, the no significant effect threshold, defined as 30% inhibition at 1 μg/mL at the time point indicated) | −ve (−ve and +ve indicate that the value is below and above respectively, the no significant effect threshold, defined as 30% inhibition at 1 μg/mL at the time point indicated) | 35.6% | 22.3 nM | – |

More lines, in order of falling EC50 [1], values ahead:

| EC50 [1] | IC50 (cSrc; Table 4a1) | IC50 (cSrc; [3]) | IC50 [2, 4] | IC50 [1] | IC50 (Syk; Table 4a1) | IC50 [2, 5] | IC50 (Syk; [3]) | Structure (SMILES) | Cell viability at time point in d-U937 cells, 4 h (d-U937 cells) | Cell viability at time point in d-U937 cells, 24 h (d-U937 cells) | inhibition at 5 µg/mL (PBMC cells) | IC50 (HRV16 in MRC5 cells) | IC50 (IL-2 release, PBMCs) |
| --- | --- | --- | --- | --- | --- | --- | --- | --- | --- | --- | --- | --- | --- |
| 0.8 nM | < 1 nM | 41 nM | 0.3 nM | 1.1 nM | 3 nM | 1.4 nM | 224 nM | COc1cc(Nc2nccc(Oc3ccc(NC(=O)Nc4cc(C(C)C)nn4-c4ccc(C)cc4)c4ccccc34)n2)cc(C(=O)NCCN2CCOCC2)c1 [Example 8, 3-((4-((4-(3-(3-Isopropyl-1-(p-tolyl)-1H-pyrazol-5-yl)ureido)naphthalen-1-yl)oxy)pyrimidin-2-yl)amino)-5-methoxy-N-(2-morpholinoethyl)benzamide] | −ve (−ve and +ve indicate that the value is below and above respectively, the no significant effect threshold, defined as 30% inhibition at 1 μg/mL at the time point indicated) | −ve (−ve and +ve indicate that the value is below and above respectively, the no significant effect threshold, defined as 30% inhibition at 1 μg/mL at the time point indicated) | 15.3% | 5.4 nM | 35.3 nM |
| 0.3 nM | < 1 nM | 8 nM | 1.1 nM | 0.7 nM | 3 nM | – | – | COc1ccc(-n2nc(C(C)C)cc2NC(=O)Nc2ccc(Oc3ccnc(Nc4cc(OC)cc(C(=O)NCCN5CCOCC5)c4)n3)c3ccccc23)cc1 [Example 53, 3-((4-((4-(3-(3-isopropyl-1-(4-methoxyphenyl)-1H-pyrazol-5-yl)ureido)naphthalen-1-yl)oxy)pyrimidin-2-yl)amino)-5-methoxy-N-(2-morpholinoethyl)benzamide] | −ve (−ve and +ve indicate that the value is below and above respectively, the no significant effect threshold, defined as 30% inhibition at 1 μg/mL at the time point indicated) | −ve (−ve and +ve indicate that the value is below and above respectively, the no significant effect threshold, defined as 30% inhibition at 1 μg/mL at the time point indicated) | 39.4% | 2 nM | 44.1 nM |
